Test results reported in patent US10961228B2, “JAK1 selective inhibitors” (AstraZeneca AB, priority 2017, dated 2021).

Legend:
[1] = biological target: recombinant JAK1 (amino acids 866-1154) (Homo sapiens (Human), UniProt P23458); assay: Enzyme inhibition studies, JAK1 (5 mM ATP, Caliper); type: biochemical
Procedure, shortened: (§1)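 N-terminal GST-fused kinase domains from insect cells, run at 5 mM ATP with inhibitor at 30, 3, 0.3, 0.03, 0.003 and 0 μM final.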

[2] = biological target: recombinant JAK3 (amino acids 781-1124) (Homo sapiens (Human), UniProt P52333); assay: Enzyme inhibition studies, JAK3 (5 mM ATP, Caliper); type: biochemical
Chain of recombinant JAK3 (amino acids 781-1124) (P52333 781-1124): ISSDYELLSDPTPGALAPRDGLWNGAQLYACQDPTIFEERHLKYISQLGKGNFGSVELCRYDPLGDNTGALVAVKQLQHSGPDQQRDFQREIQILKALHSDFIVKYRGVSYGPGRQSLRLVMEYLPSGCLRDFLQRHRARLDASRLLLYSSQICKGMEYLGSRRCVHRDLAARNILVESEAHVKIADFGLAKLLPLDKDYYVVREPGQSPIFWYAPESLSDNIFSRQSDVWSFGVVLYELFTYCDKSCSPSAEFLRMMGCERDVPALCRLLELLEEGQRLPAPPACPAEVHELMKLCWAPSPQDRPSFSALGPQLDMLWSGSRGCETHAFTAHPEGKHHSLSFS
Procedure, shortened: as §1

[3] = test system: IL-13 induced STAT6 promotor luciferase reporter in U937 monocytes (U937-STAT6-Luc); assay: Cellular interleukin (IL-13) induced JAK-STAT6-luciferase assay (pSTAT6); type: cell-based; conditions: Homo sapiens, U-937; IL-13 induced STAT6-luciferase, U937-STAT6-Luc cells
Procedure, shortened: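 U937 STAT6-luciferase reporter cells in HEPES/HBSS/0.1% BSA buffer, pretreated with serially diluted compounds (10 mM to 0.5 nM DMSO stocks) and stimulated with IL-13. Incubation 4½ h at 37 °C then 30 min at room temperature; SteadyGlo luminescence read.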

[4] = biological target: recombinant JAK2 (amino acids 831-1132) (Homo sapiens (Human), UniProt O60674); assay: Enzyme inhibition studies, JAK2 (5 mM ATP, Caliper); type: biochemical
Chain of recombinant JAK2 (amino acids 831-1132) (O60674 831-1132): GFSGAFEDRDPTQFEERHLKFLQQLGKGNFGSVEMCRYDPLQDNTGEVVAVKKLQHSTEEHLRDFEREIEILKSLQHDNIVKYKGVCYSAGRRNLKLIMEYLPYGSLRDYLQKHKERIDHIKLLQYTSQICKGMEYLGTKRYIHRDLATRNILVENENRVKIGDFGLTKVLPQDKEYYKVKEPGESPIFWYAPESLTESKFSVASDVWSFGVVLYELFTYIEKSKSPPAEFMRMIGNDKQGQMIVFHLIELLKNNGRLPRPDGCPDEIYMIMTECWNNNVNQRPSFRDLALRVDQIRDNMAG
Procedure, shortened: as §1

Chain of recombinant JAK1 (amino acids 866-1154) (P23458 866-1154): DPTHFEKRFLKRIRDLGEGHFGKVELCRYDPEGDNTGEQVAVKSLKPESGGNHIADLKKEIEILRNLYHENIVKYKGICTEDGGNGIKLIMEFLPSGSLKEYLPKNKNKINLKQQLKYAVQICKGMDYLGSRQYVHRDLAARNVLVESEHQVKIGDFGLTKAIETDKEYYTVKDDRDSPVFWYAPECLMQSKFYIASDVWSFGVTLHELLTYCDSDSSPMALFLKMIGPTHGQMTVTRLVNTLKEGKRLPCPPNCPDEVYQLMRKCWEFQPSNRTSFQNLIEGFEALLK

| IC50 [1] [nM] | IC50 [2] [nM] | IC50 [3] [nM] | IC50 [4] [nM] | Structure (SMILES) |
| --- | --- | --- | --- | --- |
| 145 | > 30000 | > 6250 | > 30000 | Cc1cnc(Nc2cccc(S(C)(=O)=O)c2F)nc1-c1c[nH]c2c(NC(=O)[C@H](C)N3CCN(C)C[C@@H]3C)cccc12 [Example 59, (S)-2-((S)-2,4-dimethylpiperazin-1-yl)-N-(3-(2-((2-fluoro-3-(methylsulfonyl)phenyl)amino)-5-methylpyrimidin-4-yl)-1H-indol-7-yl)propanamide] |
| 48.5 | > 30000 | 362 | > 30000 | CC[C@@H](C(=O)Nc1cccc2c(-c3nc(Nc4cccc(S(C)(=O)=O)c4F)ncc3C)c[nH]c12)N1CCN(C)CC1C (stereo in doubt) [Example 50, (S)-2-((R)-2,4-dimethylpiperazin-1-yl)-N-(3-(2-((2-fluoro-3-(methylsulfonyl)phenyl)amino)-5-methylpyrimidin-4-yl)-1H-indol-7-yl)butanamide] |
| 48.6 | > 30000 | 130 | 25300 | Cc1cnc(Nc2cccc(S(C)(=O)=O)c2F)nc1-c1c[nH]c2c(NC(=O)[C@@H](C)N3CCN(C)C[C@@H]3C)cccc12 [Example 58, (R)-2-((S)-2,4-dimethylpiperazin-1-yl)-N-(3-(2-((2-fluoro-3-(methylsulfonyl)phenyl)amino)-5-methylpyrimidin-4-yl)-1H-indol-7-yl)propanamide] |
| 73 | > 30000 | 508 | > 30000 | Cc1cnc(Nc2cccc(S(C)(=O)=O)c2F)nc1-c1c[nH]c2c(NC(=O)[C@H](COCc3ccccc3)N3CCN(C)CC3)cccc12 [Example 65, (S)-3-(benzyloxy)-N-(3-(2-((2-fluoro-3-(methylsulfonyl)phenyl)amino)-5-methylpyrimidin-4-yl)-1H-indol-7-yl)-2-(4-methylpiperazin-1-yl)propanamide] |
| < 3 | > 30000 | 54 | 4140 | CCOC[C@H](C(=O)Nc1cccc2c(-c3nc(Nc4cccc(S(C)(=O)=O)c4F)ncc3C)c[nH]c12)N1CCN(C)CC1 [Example 62, (R)-3-ethoxy-N-(3-(2-((2-fluoro-3-(methylsulfonyl)phenyl)amino)-5-methylpyrimidin-4-yl)-1H-indol-7-yl)-2-(4-methylpiperazin-1-yl)propanamide] |
| 3 | > 30000 | 82 | 8230 | Cc1cnc(Nc2cccc(S(C)(=O)=O)c2F)nc1-c1c[nH]c2c(NC(=O)[C@@H](C)N3CCN(C)C[C@H]3C)cccc12 [Example 48, (R)-2-((R)-2,4-dimethylpiperazin-1-yl)-N-(3-(2-((2-fluoro-3-(methylsulfonyl)phenyl)amino)-5-methylpyrimidin-4-yl)-1H-indol-7-yl)propanamide] |

More lines, now with the values behind:

| Structure (SMILES) | IC50 [1] [nM] | IC50 [2] [nM] | IC50 [3] [nM] | IC50 [4] [nM] |
| --- | --- | --- | --- | --- |
| COC[C@@H](C(=O)Nc1cccc2c(-c3nc(Nc4cccc(S(C)(=O)=O)c4F)ncc3C)c[nH]c12)N1CCCN(C)CC1 [Example 43, (S)-N-(3-(2-((2-fluoro-3-(methylsulfonyl)phenyl)amino)-5-methylpyrimidin-4-yl)-1H-indol-7-yl)-3-methoxy-2-(4-methyl-1,4-diazepan-1-yl)propanamide] | 95 | > 30000 | 477 | > 30000 |
| COC[C@H](C(=O)Nc1cccc2c(-c3nc(Nc4cccc(S(C)(=O)=O)c4F)ncc3F)c[nH]c12)N1C[C@@H](C)N[C@H](C)C1 [Example 33, (R)-2-((3R,5R)-3,5-dimethylpiperazin-1-yl)-N-(3-(5-fluoro-2-((2-fluoro-3-(methylsulfonyl)phenyl)amino)pyrimidin-4-yl)-1H-indol-7-yl)-3-methoxypropanamide] | < 3 | > 30000 | 55 | 1930 |
| CC[C@H](C(=O)Nc1cccc2c(-c3nc(Nc4cccc(S(C)(=O)=O)c4F)ncc3F)c[nH]c12)N1CCN(C)CC1 [Example 38] | 3.3 | > 30000 | 42.6 | 6870 |
| COC[C@H](C(=O)Nc1cccc2c(-c3nc(Nc4cccc(S(C)(=O)=O)c4F)ncc3C)c[nH]c12)N1C[C@@H](C)N[C@H](C)C1 [Example 29, (R)-2-((3R,5R)-3,5-dimethylpiperazin-1-yl)-N-(3-(2-((2-fluoro-3-(methylsulfonyl)phenyl)amino)-5-methylpyrimidin-4-yl)-1H-indol-7-yl)-3-methoxypropanamide] | < 3 | > 30000 | 39.9 | 1200 |
| CC[C@H](C(=O)Nc1cccc2c(-c3nc(Nc4cccc(S(C)(=O)=O)c4F)ncc3F)c[nH]c12)N1CCCN(C)CC1 [Example 17] | 3.6 | > 30000 | 90 | 4860 |
| CC[C@@H](C(=O)Nc1cccc2c(-c3nc(Nc4cccc(S(C)(=O)=O)c4F)ncc3C)c[nH]c12)N1C[C@H](C)N(C)[C@@H](C)C1 [Example 19, (S)-N-(3-(2-((2-fluoro-3-(methylsulfonyl)phenyl)amino)-5-methylpyrimidin-4-yl)-1H-indol-7-yl)-2-((3S,5S)-3,4,5-trimethylpiperazin-1-yl)butanamide] | 143 | > 30000 | 423 | > 30000 |
| Cc1cnc(Nc2cccc(S(C)(=O)=O)c2F)nc1-c1c[nH]c2c(NC(=O)[C@@H](C)N3CCNCC3)cccc12 [Example 24, (R)-N-(3-(2-((2-fluoro-3-(methylsulfonyl)phenyl)amino)-5-methylpyrimidin-4-yl)-1H-indol-7-yl)-2-(piperazin-1-yl)propanamide] | 4.2 | > 30000 | 42 | 3460 |
| COC[C@@H](C(=O)Nc1cccc2c(-c3nc(Nc4cccc(S(C)(=O)=O)c4F)ncc3F)c[nH]c12)N1C[C@@H](C)N[C@H](C)C1 [Example 32] | 482 | > 30000 | 933 | > 30000 |
| COC[C@H](C(=O)Nc1cccc2c(-c3nc(Nc4cccc(S(C)(=O)=O)c4F)ncc3F)c[nH]c12)N1CCCN(C)CC1 [Example 45, (R)-N-(3-(5-fluoro-2-((2-fluoro-3-(methylsulfonyl)phenyl)amino)pyrimidin-4-yl)-1H-indol-7-yl)-3-methoxy-2-(4-methyl-1,4-diazepan-1-yl)propanamide] | < 3 | > 30000 | 36 | 718 |
| Cc1cnc(Nc2cccc(S(C)(=O)=O)c2F)nc1-c1c[nH]c2c(NC(=O)[C@H](C)N3CCN(C)C[C@H]3C)cccc12 [Example 47, (S)-2-((R)-2,4-dimethylpiperazin-1-yl)-N-(3-(2-((2-fluoro-3-(methylsulfonyl)phenyl)amino)-5-methylpyrimidin-4-yl)-1H-indol-7-yl)propanamide] | 180 | > 30000 | 619 | > 30000 |
